In patent publication EP0761658A1, “Azole-phenyl urea derivatives as ACAT inhibitors and their production” (NIHON NOHYAKU CO., LTD., priority 1995, dated 1997):

What was measured:
[1] = system: acyl-CoA:cholesterol acyltransferase (ACAT); test: Inhibitory activity on acyl-CoA:cholesterol acyltransferase (ACAT), microsomal fraction of intestinal mucosa, [1-14C]oleyl-CoA incorporation into cholesterol esters; assay type: biochemical, white rabbit; details: rabbit intestinal mucosa microsomes
Procedure: The enzyme used in the test was prepared according to the method of Heider et al. [J. Lipid Res. 24, 1127 (1983)]. A white rabbit was killed by blood-letting under anesthesia, after which its intestinal mucosa was collected and then homogenized, and microsomal fraction was obtained by stepwise centrifugation. The microsomal fraction was suspended in 0.154 M phosphate buffer (pH 7.4) and stored at -80°C until use.
ACAT activity was determined by a modification of the method of Helgerud et al. [J. Lipid Res. 22, 271 (1981)] by measuring radioactivity incorporated into cholesterol esters from [1-^14C]oleyl-CoA, as an indication. As to the ACAT-inhibitory activity of each compound to be tested, the inhibition rate was calculated by the following equation. Inhibition rate (%) =([ACAT activity of control group which was given solvent]-[ACAT activity of group treated with compound to be tested])/([ACAT activity of control group which was given solvent])x 100 [formula]

[2] = system: rats fed on a high-cholesterol diet; test: Serum cholesterol lowering activity in rats fed on a high-cholesterol diet; assay type: in vivo, Male Sprague-Dawley rats; details: Rattus norvegicus, 96 h; total serum cholesterol; 30 mg per kg of body weight per day for 4 days, suspended in 0.5% carboxymethyl cellulose; blood 24 hours after last administration; read-out: Reduction rate (%)
Procedure: Male Sprague-Dawley rats of 6-week-old were divided into three groups. The first group (normal group) was fed an ordinary diet for 4 days. The second group (control group) was fed a high cholesterol diet (containing 1.0% cholesterol, 1.0% cholic acid and 8.5% coconut oil) for 4 days. The third group (treated group) was fed a high cholesterol diet and was treated with a compound for 4 days.
Simultaneously with the beginning of the above feeding, the compound was suspended in a 0.5% carboxymethyl cellulose solution and administered to the treated group, in a dose of 30 mg (in terms of the compound) per kg of body weight per day for 4 days. A 0.5% carboxymethyl cellulose solution was also administered to the normal group and the control group in the same manner as above.
After 24 hours of the last administration, blood was collected and the cholesterol concentration in serum was measured by an enzymatic method. The reduction rate of the total serum cholesterol concentration was calculated from values obtained for the three groups by the following equation. Choresterol reduction rate (%) =((A) - (B))/((A) - (C))x 100 [formula] wherein A: the serum cholesterol concentration of the control group. B: the serum cholesterol concentration of the treated group. C: the serum cholesterol concentration of the normal group.

[3] = compound concentration 1 (head prints '1 | 0.01 µm')

Row | SMILES | Inhibition rate % ([1]; compound concentration 0.01 µm) [%] | Inhibition rate % [1, 3] [%] | inhibition in vivo at 30 mg/kg [2] [%]
1 | CC(C)c1cccc(C(C)C)c1NC(=O)Nc1sc(-c2ccccc2)nc1-c1ccccc1Cl [Compound 1, N-[4-(2-Chlorophenyl)-2-phenylthiazol-5-yl]-N'-(2,6-diisopropylphenyl)urea] | 38.7 | 99.9 | 53.8
2 | Cc1ccccc1-c1nc(-c2ccccc2)sc1NC(=O)Nc1c(C(C)C)cccc1C(C)C [Compound 2, N-(2,6-Diisopropylphenyl)-N'-[4-(2-methylphenyl)-2-phenylthiazol-5-yl]urea] | 55.2 | 99.8 | 85.7
3 | Cc1nc(-c2ccccc2)c(NC(=O)Nc2c(C(C)C)cccc2C(C)C)s1 [Compound 3, N-(2,6-Diisopropylphenyl)-N'-(2-methyl-4-phenylthiazol-5-yl)urea] |  | 92.1 | 
4 | CCc1cccc(CC)c1NC(=O)Nc1sc(C)nc1-c1ccccc1Cl [Compound 5, N-[4-(2-Chlorophenyl)-2-methylthiazol-5-yl]-N'-(2,6-diethylphenyl)urea] |  | 97.8 | 
5 | CC(C)c1cccc(C(C)C)c1NC(=O)Nc1sc(C2CCCCC2)nc1-c1ccccc1Cl [Compound 13, N-[4-(2-Chlorophenyl)-2-cyclohexylthiazol-5-yl]-N'-(2,6-diisopropylphenyl)urea] |  | 72.7 | 
6 | CC(C)c1cccc(C(C)C)c1NC(=O)Nc1sc(N(C)C)nc1-c1ccccc1Cl [Compound 15, N-[4-(2-Chlorophenyl)-2-dimethylaminothiazol-5-yl]-N'-(2,6-diisopropylphenyl)urea] |  | 99.2 | 
7 | CCc1cccc(CC)c1NC(=O)Nc1sc(N2CCCCC2)nc1-c1ccccc1 [Compound 17, N-(2,6-Diethylphenyl)-N'-[4-phenyl-2-(N-piperidino)thiazol-5-yl)urea] |  | 99.8 | 
8 | CC(C)c1cccc(C(C)C)c1NC(=O)Nc1sc(N2CCOCC2)nc1-c1ccccc1Cl [Compound 21, N-[4-(2-Chlorophenyl)-2-(N-morpholino)thiazol-5-yl]-N'-(2,6-diisopropylphenyl)urea] |  | 99.8 | 
9 | CC(C)c1cccc(C(C)C)c1NC(=O)Nc1nc(-c2ccccc2)sc1-c1ccccc1Cl [Compound 23, N-[5-(2-Chlorophenyl)-2-phenylthiazol-4-yl]-N'-(2,6-diisopropylphenyl)urea] | 59.4 | 99.6 | 108
10 | CC(C)c1cccc(C(C)C)c1NC(=O)Nc1nc(N2CCOCC2)sc1-c1ccccc1Cl [Compound 24, N-[5-(2-Chlorophenyl)-2-(N-morpholino)thiazol-4-yl]-N'-(2,6-diisopropylphenyl)urea] |  | 97.9 | 
11 | Cc1nc(NC(=O)Nc2c(C(C)C)cccc2C(C)C)c(-c2ccccc2Cl)s1 [Compound 25, N-[5-(2-Chlorophenyl)-2-methylthiazol-4-yl]-N'-(2,6-diisopropylphenyl)urea] | 88.1 |  | 39.1
12 | CCc1cccc(CC)c1NC(=O)Nc1nc(-c2ccccc2)sc1-c1ccccc1C [Compound 28, N-(2,6-Diethylphenyl)-N'-[5-(2-methylphenyl)-2-phenylthiazol-4-yl]urea] | 64.1 |  | 87.8
13 | CSc1ccccc1-c1sc(-c2ccccc2)nc1NC(=O)Nc1c(C(C)C)cccc1C(C)C [Compound 30, N-(2,6-Diisopropylphenyl)-N'-[5-(2-methylthiophenyl)-2-phenylthiazol-4-yl]urea] | 76.8 |  | 75.7
14 | Cc1ccccc1-c1oc(-c2ccccc2)nc1NC(=O)Nc1c(C(C)C)cccc1C(C)C [Compound 31, N-(2,6-Diisopropylphenyl)-N'-[5-(2-methylphenyl)-2-phenyloxazol-4-yl]urea] | 70.6 |  | 59.8
15 | Cc1ccccc1-c1nc(-c2ccccc2)oc1NC(=O)Nc1c(C(C)C)cccc1C(C)C [Compound 33, N-(2,6-Diisopropylphenyl)-N'-[4-(2-methylphenyl)-2-phenyloxazol-5-yl]urea] | 62.0 |  | 73.2
16 | CC(C)c1cccc(C(C)C)c1NC(=O)Nc1c(-c2ccccc2Cl)nc(-c2ccccc2)n1Cc1ccccc1 [Compound 36, N-[1-Benzyl-4-(2-chlorophenyl)-2-phenylimidazol-5-yl]-N'-(2,6-diisopropylphenyl)urea] |  | 79.5 | 
17 | CC(C)c1cccc(C(C)C)c1NC(=O)Nc1nc(-c2ccccc2)n(COCC[Si](C)(C)C)c1-c1ccccc1Cl [Compound 40, N-[5-(2-Chlorophenyl)-2-phenyl-1-(2-trimethylsilyl)ethoxymethylimidazol-4-yl]-N'-(2,6-diisopropylphenyl)urea] |  | 99.4 | 
18 | COCn1c(-c2ccccc2)nc(NC(=O)Nc2c(C(C)C)cccc2C(C)C)c1-c1ccccc1Cl [Compound 42, N-[5-(2-Chlorophenyl)-1-methoxymethyl-2-phenylimidazol-4-yl]-N'-(2,6-diisopropylphenyl)urea] |  | 99.2 | 
19 | COc1ccc(Cn2c(-c3ccccc3)nc(NC(=O)Nc3c(C(C)C)cccc3C(C)C)c2-c2ccccc2Cl)cc1 [Compound 44, N-[5-(2-Chlorophenyl)-1-(4-methoxybenzyl)-2-phenylimidazol-4-yl]-N'-(2,6-diisopropylphenyl)urea] |  | 99.2 | 

Further lines, with some results ahead:

Row | Inhibition rate % ([1]; compound concentration 0.01 µm) [%] | Inhibition rate % [1, 3] [%] | SMILES | inhibition in vivo at 30 mg/kg [2] [%]
20 | 63.9 |  | Cc1nc(-c2ccccc2Cl)c(NC(=O)Nc2c(C(C)C)cccc2C(C)C)s1 [Compound 4, N-[4-(2-Chlorophenyl)-2-methylthiazol-5-yl]-N'-(2,6-diisopropylphenyl)urea] | 
21 |  | 46.1 | Cc1nc(-c2ccccc2Cl)c(NC(=O)Nc2ccc(F)cc2F)s1 [Compound 6, N-[4-(2-Chlorophenyl)-2-methylthiazol-5-yl]-N'-(2,4-difluorophenyl)urea] | 
22 |  | 99.1 | Cc1nc(-c2ccccc2C)c(NC(=O)Nc2c(C(C)C)cccc2C(C)C)s1 [Compound 8, N-(2,6-DiisopropylphenyI)-N'-[2-methyl-4-(2-methylphenyl)thiazol-5-yl]urea] | 
23 |  | 49.4 | Cc1nc(-c2ccccc2C)c(NC(=O)Nc2ccc(F)cc2F)s1 [Compound 9, N-(2,4-Difluorophenyl)-N'-[2-methyl-4-(2-methylphenyl)thiazol-5-yl]urea] | 
24 | 42.9 | 99.2 | CCc1nc(-c2ccccc2Cl)c(NC(=O)Nc2c(C(C)C)cccc2C(C)C)s1 [Compound 11, N-[4-(2-Chlorophenyl)-2-ethylthiazol-5-yl]-N'-(2,6-diisopropylphenyl)urea] | 46.2
25 |  | 96.2 | CCCCCc1nc(-c2ccccc2Cl)c(NC(=O)Nc2c(C(C)C)cccc2C(C)C)s1 [Compound 12, N-[4-(2-Chlorophenyl)-2-n-pentylthiazol-5-yl]-N'-(2,6-diisopropylphenyl)urea] | 
26 |  | 99.9 | CC(C)c1cccc(C(C)C)c1NC(=O)Nc1sc(N2CCCCC2)nc1-c1ccccc1Cl [Compound 19, N-[4-(2-Chlorophenyl)-2-(N-piperidino)thiazol-5-yl]-N'-(2,6-diisopropylphenyl)urea] | 
27 | 51.4 |  | CCc1cccc(CC)c1NC(=O)Nc1nc(C)sc1-c1ccccc1Cl [Compound 26, N-[5-(2-Chlorophenyl)-2-methylthiazol-4-yl]-N'-(2,6-diethylphenyl)urea] | 
28 | 86.5 |  | Cc1ccccc1-c1sc(-c2ccccc2)nc1NC(=O)Nc1c(C(C)C)cccc1C(C)C [Compound 27, N-(2,6-Diisopropylphenyl)-N'-[5-(2-methylphenyl)-2-phenylthiazol-4-yl]urea] | 61.7
29 | 90.2 |  | Cc1nc(NC(=O)Nc2c(C(C)C)cccc2C(C)C)c(-c2ccccc2C)s1 [Compound 29, N-(2,6-Diisopropylphenyl)-N'-[2-methyl-5-(2-methylphenyl)thiazol-4-yl]urea] | 46.1
30 | 33.5 | 99.6 | CC(C)c1cccc(C(C)C)c1NC(=O)Nc1nc(-c2ccccc2)n(C)c1-c1ccccc1Cl [Compound 35, N-[5-(2-Chlorophenyl)-1-methyl-2-phenylimidazol-4-yl]-N'-(2,6-diisopropylphenyl)urea] | 
31 |  | 77.9 | CC(C)c1cccc(C(C)C)c1NC(=O)Nc1nc(-c2ccccc2)[nH]c1-c1ccccc1Cl [Compound 45, N-[4(5)-(2-Chlorophenyl)-2-phenylimidazol-5(4)-yl]-N'-(2,6-diisopropylphenyl)urea] | 
